Results published in patent US6355653B1, “Amino-triazolopyridine derivatives” (Hoffmann-La Roche Inc., priority 1999, dated 2002).

Molecular target: T1, human adenosine A2A receptor (Homo sapiens, UniProt P29274)
T1 construct: expressed in transfected cells; host or cells: CHO cells, Semliki Forest virus expression system; washed membrane preparation
Test: [3H]-SCH-58261 binding assay at the human adenosine A2A receptor
Settings: [3H]-SCH-58261 (1 nM), membranes of CHO cells recombinantly expressing the human A2A receptor; Ki by Cheng-Prussoff; read-out: hA2ApKi (converted)
Experimental: Human Adenosine A2A Receptor
The human adenosine A2A receptor was recombinantly expressed in chinese hamster ovary (CHO) cells using the semliki forest virus expression system. Cells were harvested, washed twice by centrifugation, homogenised and again washed by centrifugation. The final washed membrane pellet was suspended in a Tris (50 mM) buffer containing 120 mM NaCl, […] and 10 mM MgCl2 (pH 7.4) (buffer A). The [^3H]-SCH-58261 (Dionisotti et al., 1997, Br J Pharmacol 121, 353; 1 nM) binding assay was carried out in 96-well plates in the presence of 2.5 μg of membrane protein, 0.5 mg of Ysi-poly-1-lysine SPA beads io and 0.1U adenosine deaminase in a final volume of 200 μl of buffer A. Non-specific binding was defined using xanthine amine congener (XAC; 2 μM). Compounds were tested at 10 concentrations from 10 μM-0.3 nM. All assays were conducted in duplicate and repeated at least two times. Assay plates were incubated for lhour at room temperature before centrifugation and then bound ligand determined using a Packard Topcount scintillation counter. IC50 values were calculated using a non-linear curve fitting program and Ki values calculated using the Cheng-Prussoff equation.

T1 sequence (P29274 whole entry): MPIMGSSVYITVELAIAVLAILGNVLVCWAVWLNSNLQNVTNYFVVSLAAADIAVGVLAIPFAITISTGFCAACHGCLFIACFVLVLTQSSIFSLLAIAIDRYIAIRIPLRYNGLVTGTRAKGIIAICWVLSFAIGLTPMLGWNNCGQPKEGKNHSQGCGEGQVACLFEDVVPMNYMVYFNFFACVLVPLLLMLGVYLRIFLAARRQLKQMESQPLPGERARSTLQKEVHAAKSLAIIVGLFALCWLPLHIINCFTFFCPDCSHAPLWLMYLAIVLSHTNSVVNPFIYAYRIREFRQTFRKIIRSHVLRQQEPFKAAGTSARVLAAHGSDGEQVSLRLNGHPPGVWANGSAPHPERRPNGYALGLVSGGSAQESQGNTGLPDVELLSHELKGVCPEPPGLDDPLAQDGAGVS

Ki	SMILES
0.0158 µM	Nc1cc(-c2ccnc(F)c2)cc2nc(-c3ccco3)nn12 [7-(2-Fluoro-pyridin-4-yl)-2-furan-2-yl-[1,2,4]triazolo[1,5-a]pyridin-5-ylamine]
0.00794 µM	CCc1cc(-c2cc(N)n3nc(-c4ccccn4)nc3c2)ccn1 [7-(2-Ethyl-pyridin-4-yl)-2-pyridin-2-yl-[1,2,4]triazolo[1,5-a]pyridin-5-ylamine]
0.0316 µM	Cc1cc(-c2cc(N)n3nc(-c4ccccn4)nc3c2)ccn1 [7-(2-Methyl-pyridin-4-yl)-2-pyridin-2-yl-[1,2,4]triazolo[1,5-a]pyridin-5-ylamine]
0.0251 µM	COc1ccc(-c2cc(N)n3nc(-c4ccco4)nc3c2)cc1OC [7-(3,4-Dimethoxy-phenyl)-2-furan-2-yl-[1,2,4]triazolo[1,5-a]pyridin-5-ylamine]
0.0126 µM	COc1ccc(-c2cc(N)n3nc(-c4ccco4)nc3c2)cn1 [2-Furan-2-yl-7-(6-methoxy-pyridin-3-yl)-[1,2,4]triazolo[1,5-a]pyridin-5-ylamine]
0.0251 µM	Nc1cc(-c2cccc(F)c2)cc2nc(C3=CCCO3)nn12 [2-(4,5-Dihydro-furan-2-yl)-7-(3-fluoro-phenyl)-[1,2,4]triazolo[1,5-a]pyridin-5-ylamine]
0.0316 µM	Cc1cccc(-c2cc(N)n3nc(C4=CCCO4)nc3c2)c1 [2-(4,5-Dihydro-furan-2-yl)-7-m-tolyl-[1,2,4]triazolo[1,5-a]pyridin-5-ylamine]
0.01 µM	Cc1cccc(-c2cc(N)n3nc(-c4ccco4)nc3c2)c1 [2-Furan-2-yl-7-m-tolyl-[1,2,4]triazolo[1,5-a]pyridin-5-ylamine]
0.00794 µM	Nc1cc(-c2ccc(Cl)c(Cl)c2)cc2nc(C3=CCCO3)nn12 [7-(3,4-Dichloro-phenyl)-2-(4,5-dihydro-furan-2-yl)-[1,2,4]triazolo[1,5-a]pyridin-5-ylamine]

System: not given
Test: not given
Settings: not given

melting point	SMILES
214 to 216 °C	Nc1cc(-c2ccccc2)cc2nc(-c3ccccc3)nn12 [Example 25, 2,7-Diphenyl-[1,2,4]triazolo[1,5-a]pyridin-5-ylamine]
100 to 101 °C	Cc1cc(-c2cc(N)n3nc(-c4ccco4)nc3c2)ccn1 [Example 7, 2-Furan-2-yl-7-(2-methyl-pyridin-4-yl)-[1,2,4]triazolo[1,5-a]pyridin-5-ylamine]
184 to 186 °C	CCc1cc(-c2cc(N)n3nc(-c4ccco4)nc3c2)ccn1 [Example 8, 7-(2-Ethyl-pyridin-4-yl)-2-furan-2-yl-[1,2,4]triazolo[1,5-a]pyridin-5-ylamine]
278 to 280 °C	Nc1cc(-c2ccccn2)cc2nc(-c3ccccc3)nn12 [Example 23, 2-Phenyl-7-pyridin-2-yl-[1,2,4]triazolo[1,5-a]pyridin-5-ylamine]
207 to 210 °C	Nc1cc(-c2ccncc2)cc2nc(-c3ccccc3)nn12 [Example 22, 2-Phenyl-7-pyridin-4-yl-[1,2,4]triazolo[1,5-a]pyridin-5-ylamine]
275 to 277 °C	Cc1cc(-c2nc3cc(-c4ccncc4)cc(N)n3n2)oc1C [Example 16, 2-(4,5-Dimethyl-furan-2-yl)-7-pyridin-4-yl-[1,2,4]triazolo[1,5-a]pyridin-5-ylamine]
201 to 203 °C	Nc1cc(-c2cccnc2)cc2nc(-c3ccccc3)nn12 [Example 24, 2-Phenyl-7-pyridin-3-yl-[1,2,4]triazolo[1,5-a]pyridin-5-ylamine]
257 to 260 °C	Nc1cc(-c2cc(Cl)cc(Cl)c2)cc2nc(-c3ccco3)nn12 [Example 5, 7-(3,5-Dichloro-phenyl)-2-furan-2-yl-[1,2,4]triazolo[1,5-a]pyridin-5-ylamine]
